Source: patent US11485725B2, “Derivatives of piperlongumine and uses thereof” (Auransa Inc., priority 2017, dated 2022)
Where two headings read alike, the source gives them in different places.

How the values were obtained:
[1] = tested on: HCT116 (colorectal cancer) cells; test: Resazurin-based cell viability assay using colorectal cancer cells
Method: Determination of Potency of Compounds in Cell Viability Assay Using Colorectal Cancer Cells
The blue dye resazurin-based assay was performed to determine cell viability and used according to manufacture protocol (Sigma®). HCT116 (colorectal cancer) cells were seeded in the DMEM medium (10% FBS serum). Approximately 1,500 cells were plated per well in 96 well plates. Cells were allowed to grow at 37° C. for 24 hr in 5% CO2 environment in a humidified incubator. Serially diluted compounds (100 μL) were added to the culture plate after 24 hr. After addition of compounds, plates were incubated for 72 hr. Experiment was terminated at the designated incubation time by replacing the medium with 100 μL of 1 mM of resazurin (Sigma®) prepared in culture medium (DMEM) and were further incubated in culture conditions for 4-6 hours. Fluorescence was recorded using a multimodal plate reader (Biotek Synergy Neo®) at an excitation wavelength of 535 nm and emission wavelength of 590 nm to obtain relative fluorescence units. Data analysis was done by subtracting the background fluorescence (medium blank) value from each reading and then normalizing with the vehicle control (DMSO treated cells) to obtain percent survival/proliferation. IC50 was calculated from percent survival values using GraphPad Prism® (see Table 1).

MOLP-8 = test: In vitro cell viability assay (CellTiter-Glo, ATP levels), multiple myeloma cells; format: cell-based
Method: (§1) In Vitro Cell Viability Assay
(§2) The present disclosure provides a method for inhibiting cell viability, as measured by ATP levels. The method for inhibiting cell viability is drawn to contacting various cancer cells with the compounds described herein at various concentrations. The cancer cell lines were maintained in culture conditions at 37° C. in an atmosphere of 5% CO2 in air. The cells growing in an exponential growth phase were harvested and counted for plating. Compounds were incubated in two cancer cell types representing multiple myeloma (MOLP-8) and triple negative breast cancer (DU4475). Cells were plated at an optimized cell numbers per well in 96-well plates and allowed to attach to the plates overnight at approximately 80% confluency.
(§3) After addition of compounds, plates were incubated for 7-day. At the end of incubation period on day 8, media was removed and replaced with a solution of CellTiter-Glo™ reagent (Promega®) according to protocol. Luminescence was read using an EnVision® multi-label plate reader (Perkin-Elmer®), and signal intensity was calculated relative to positive and negative control wells. Cisplatin was included as the positive control. A dose-response calculation was performed in a non-linear regression fit and by using the Hill equation to calculate a concentration-response curve and 50% inhibitory concentration (IC50) values for each compound.
(§4) The average IC50 values of compounds 1-15 in multiple myeloma (MOLP-8) and triple negative breast cancer (DU4475) cells are shown in Table 1.

DU4475 = test: In vitro cell viability assay (CellTiter-Glo, ATP levels), triple negative breast cancer cells; format: cell-based
Method: as §1, §2, §3, §4

[2] = Homo sapiens, HCT-116, 72 hr incubation
[3] = Homo sapiens, MOLP-8, 168 h, 7-day incubation, CellTiter-Glo, average values, read-out: MOLP-8 IC50
[4] = Homo sapiens, DU-4475, 168 h, 7-day incubation, CellTiter-Glo, average values, read-out: DU4475 IC50

Structure (SMILES)	IC50 [1, 2]	IC50 (MOLP-8; [3])	IC50 (DU4475; [4])	further results
CC(C)(C)OC(=O)N1CCC(/C=C/C(=O)N2CCC=CC2=O)CC1 [Compound 19, tert-butyl (E)-4-(3-oxo-3-(6-oxo-3,6-dihydropyridin-1(2H)-yl)prop-1-en-1-yl)piperidine-1-carboxylate]	1970 nM	410 nM	820 nM	–
O=C1C=CCCN1C(=O)/C=C/c1ccc2c(n1)OCCO2 [Compound 23, (E)-1-(3-(2,3-dihydro-[1,4]dioxino[2,3-b]pyridin-6-yl)acryloyl)-5,6-dihydropyridin-2(1H)-one]	–	–	–	IC50 ([1]; 72 hr incubation, read-out: HCT 116 IC50): 3160 nM; IC50 (MOLP-8; 7-day incubation, CellTiter-Glo, average values, read-out: MOLP-8 IC50): 700 nM; IC50 (DU4475; 7-day incubation, CellTiter-Glo, average values, read-out: DU4475 IC50): 500 nM
Cc1noc(/C=C/C(=O)N2CCC=CC2=O)n1 [Compound 16, (E)-1-(3-(3-methyl-1,2,4-oxadiazol-5-yl)acryloyl)-5,6-dihydropyridin-2(1H)-one]	960 nM	660 nM	750 nM	–
CC1(/C=C/C(=O)N2CCC=CC2=O)CCCCC1 [Compound 22, (E)-1-(3-(1-methylcyclohexyl)acryloyl)-5,6-dihydropyridin-2(1H)-one]	3850 nM	2210 nM	1840 nM	–
O=C(/C=C/c1ncccn1)N1CCC=C(Cl)C1=O [Compound 35, (E)-3-chloro-1-(3-(pyrimidin-2-yl)acryloyl)-5,6-dihydropyridin-2(1H)-one]	380 nM	80 nM	210 nM	–
O=C(c1ccc(F)cc1)N1CCC(/C=C/C(=O)N2CCC=CC2=O)CC1 [Compound 50, (E)-1-(3-(1-(4-fluorobenzoyl)piperidin-4-yl)acryloyl)-5,6-dihydropyridin-2(1H)-one]	–	410 nM	500 nM	–
O=C1C=CCCN1C(=O)/C=C/C1CCOCC1 [Compound 34, 1-[(2E)-3-(tetrahydro-2H-pyran-4-yl)prop-2-enoyl]-5,6-dihydropyridin-2(1H)-one]	3800 nM	510 nM	1430 nM	–
O=C1C=CCCN1C(=O)/C=C/c1ncc2ccccc2n1 [Compound 48, (E)-1-(3-(quinazolin-2-yl)acryloyl)-5,6-dihydropyridin-2(1H)-one]	–	290 nM	350 nM	–
CN1CCC(/C=C/C(=O)N2CCC=CC2=O)CC1 [Compound 41, (E)-1-(3-(1-methylpiperidin-4-yl)acryloyl)-5,6-dihydropyridin-2(1H)-one]	1240 nM	–	–	–
C/C(=C\c1ncccn1)C(=O)N1CCC=C(Cl)C1=O [Compound 46, (E)-3-chloro-1-(2-methyl-3-(pyrimidin-2-yl)acryloyl)-5,6-dihydropyridin-2(1H)-one]	970 nM	–	–	–
C/C(=C\c1ncccn1)C(=O)N1CCC=CC1=O [Compound 42, (E)-1-(2-methyl-3-(pyrimidin-2-yl)acryloyl)-5,6-dihydropyridin-2(1H)-one]	2200 nM	–	–	–
CS(=O)(=O)N1CCC(/C=C/C(=O)N2CCC=CC2=O)CC1 [Compound 47, 1-{(2E)-3-[1-(methylsulfonyl)piperidin-4-yl]prop-2-enoyl}-5,6-dihydropyridin-2(1H)-one]	3140 nM	–	–	–
O=C1C=C(Cl)CCN1C(=O)/C=C/c1ncccn1 [Compound 36, (E)-4-chloro-1-(3-(pyrimidin-2-yl)acryloyl)-5,6-dihydropyridin-2(1H)-one]	2970 nM	–	–	–
O=C1C=CCCN1C(=O)/C=C/c1ccnnc1 [Compound 39, (E)-1-(3-(pyridazin-4-yl)acryloyl)-5,6-dihydropyridin-2(1H)-one]	–	300 nM	650 nM	–
COc1cc(/C=C/C(=O)N2CCC=CC2=O)cc(OC)c1OC [Piperlongumine, 1-[(E)-3-(3,4,5-trimethoxyphenyl)prop-2-enoyl]-2,3-dihydropyridin-6-one]	–	–	–	IC50 (MOLP-8; Homo sapiens, MOLP-8, 168 h, read-out: average IC50 in multiple myeloma (MOLP-8) cells): ~1010 nM; IC50 (DU4475; Homo sapiens, DU-4475, 168 h, read-out: average IC50 in triple negative breast cancer (DU4475) cells): ~1240 nM

Continued, in another order:

IC50 [1, 2]	IC50 (MOLP-8; [3])	IC50 (DU4475; [4])	Structure (SMILES)	further results
31000 nM	4600 nM	6790 nM	Cn1cc(/C=C/C(=O)N2CC(C)(C)C=CC2=O)cn1 [Compound 85, (E)-5,5-dimethyl-1-(3-(1-methyl-1H-pyrazol-4-yl)acryloyl)-5,6-dihydropyridin-2(1H)-one]	–
11100 nM	2750 nM	4840 nM	Cn1cc(/C=C(/C(=O)N2CCC=CC2=O)c2ccccc2)cn1 [Compound 83, 1-[(2E)-3-(1-methyl-1H-pyrazol-4-yl)-2-phenylprop-2-enoyl]-5,6-dihydropyridin-2(1H)-one]	–
–	390 nM	840 nM	CC(C)(O)CN1CCC(/C=C/C(=O)N2CCC=CC2=O)CC1 [Compound 59, 1-{(2E)-3-[1-(2-hydroxy-2-methylpropyl)piperidin-4-yl]prop-2-enoyl}-5,6-dihydropyridin-2(1H)-one]	–
3110 nM	210 nM	950 nM	O=C1C=CCCN1S(=O)(=O)/C=C/c1ncccn1 [Compound 66, 1-{[(E)-2-(pyrimidin-2-yl)ethenyl]sulfonyl}-5,6-dihydropyridin-2(1H)-one]	–
–	1000 nM	1520 nM	Cn1cc(/C=C/C(=O)N2CCC=CC2=O)c2ccccc21 [Compound 52, 1-[(2E)-3-(1-methyl-1H-indol-3-yl)prop-2-enoyl]-5,6-dihydropyridin-2(1H)-one]	–
2250 nM	360 nM	800 nM	O=C(Nc1ccc(F)cc1)N1CCC(/C=C/S(=O)(=O)N2CCC=CC2=O)CC1 [Compound 82, (E)-N-(4-fluorophenyl)-4-(2-((6-oxo-3,6-dihydropyridin-1(2H)-yl)sulfonyl)vinyl)piperidine-1-carboxamide]	–
3710 nM	1550 nM	1630 nM	Cn1cc(/C=C(\C(=O)N2CCC=CC2=O)c2ccccc2)cn1 [Compound 84, (Z)-1-(3-(1-methyl-1H-pyrazol-4-yl)-2-phenylacryloyl)-5,6-dihydropyridin-2(1H)-one]	–
4620 nM	860 nM	1600 nM	Cn1cc(/C=C/S(=O)(=O)N2CCC=CC2=O)cn1 [Compound 75, 1-{[(E)-2-(1-methyl-1H-pyrazol-4-yl)ethenyl]sulfonyl}-5,6-dihydropyridin-2(1H)-one]	–
–	560 nM	570 nM	O=C1C=CCCN1C(=O)/C=C/C1CCN(S(=O)(=O)c2ccc(F)cc2)CC1 [Compound 51, (E)-1-(3-(1-(4-fluorophenylsulfonyl)piperidin-4-yl)acryloyl)-5,6-dihydropyridin-2(1H)-one]	–
2250 nM	–	–	O=C1C=CCCN1C(=O)/C=C/c1cnc2c(n1)OCCO2 [Compound 65, (E)-1-(3-(2,3-dihydro-[1,4]dioxino[2,3-b]pyrazin-6-yl)acryloyl)-5,6-dihydropyridin-2(1H)-one]	–
–	680 nM	950 nM	O=C1C=CCCN1C(=O)/C=C/C1CCN(c2ccc(F)cc2)CC1 [Compound 61, 1-{3-[1-(4-fluorophenyl)piperidin-4-yl]prop-2-enoyl}-5,6-dihydropyridin-2(1H)-one]	–
4320 nM	–	–	CC1(/C=C/C(=O)N2CCC=CC2=O)CCN(C(=O)OC(C)(C)C)CC1 [Compound 64, tert-butyl (E)-4-methyl-4-(3-oxo-3-(6-oxo-3,6-dihydropyridin-1(2H)-yl)prop-1-en-1-yl)piperidine-1-carboxylate]	–
3150 nM	–	–	COc1cc(/C=C/C(=O)N2C(=O)C=CCC2(C)C)cc(OC)c1OC [Compound 94, (E)-6,6-dimethyl-1-(3-(3,4,5-trimethoxyphenyl)acryloyl)-5,6-dihydropyridin-2(1H)-one]	–
1400 nM	–	–	O=C(c1ccccc1)N1CCC(/C=C/C(=O)N2CCC=CC2=O)CC1 [Compound 54, 1-[(2E)-3-(1-benzoylpiperidin-4-yl)prop-2-enoyl]-5,6-dihydropyridin-2(1H)-one]	–
–	340 nM	590 nM	O=C1C=CCCN1C(=O)/C=C/C1CCN(Cc2ccc(F)cc2)CC1 [Compound 60, 1-{3-[1-(4-fluorobenzyl)piperidin-4-yl]prop-2-enoyl}-5,6-dihydropyridin-2(1H)-one]	–
88300 nM	–	–	CC1=CCCN(C(=O)/C=C/c2cnn(C)c2)C1=O [Compound 93, (E)-3-methyl-1-(3-(1-methyl-1H-pyrazol-4-yl)acryloyl)-5,6-dihydropyridin-2(1H)-one]	–
